Patent US8822198B2, “Method for optimizing a biopharmaceutical production process” (priority 2009, dated 2014)
“Also recorded” adds a separate entry of the source.

Columns and labels:
[1] = tested on: CHO; test: Bioreactor fermentation, pCO2 regulated/unregulated and buffer systems (Example 3); type: cell-based, Chinese Hamster
Protocol: The fermentation using the multifermenter is again preceded by an optimising test using SDR. In this preliminary test, in accordance with Example 1, different NaHCO3 concentrations are tested in conjunction with the media Sod-β/H and TES/K. In the experiment, in addition to the evaluation by the drop in pO2, an identically covered well plate is used having pH sensors. […] (The data from the preliminary test are not shown here.) Fermentation takes place in two multifermenters (corresponding to twelve individual fermenters) with different media combinations. The procedure and handling are based on the sections described under the headings Equipment, Methods and Operating steps. [table] The CO2 profile shown above applies to the regulated bioreactor FS 33.1. in the remaining fermenters, after the seeding (d0), for a specific length of time at a specific control magnitude, CO2(gas) is added in order to provide the cells with a minimum of dissolved CO2. […] In the context of determining cell density it was jointly decided that no further manual interventions are required for supplying CO2 gas. [table]

[2] = tested on: CHO; test: Shake flask experiment, buffer screen (Example 2); type: cell-based, Chinese Hamster; conditions: shake flasks; for cell growth / buffer performance: 11 d, incubator 1
Protocol: The selection of the buffer systems (cell-free) is now operated with cells. The criterion for the choice of the buffer systems used in this experiment is an acceptable osmolality and good buffer characteristics during the introduction of gas into the shake flask incubator. […] The objective is to determine the best buffer medium, in relation to the growth performance of the cell, as a basis for a subsequent fermentation in the bioreactor. The preparation is carried out analytically as precisely as possible. The pH values are adjusted by BGA comparison. Lower buffer concentrations are added by means of stock solutions. After manufacture, sterile filtration is carried out. As a safety measure the experiments are carried out with n=2. To achieve two different gas supply variants, the experiments are split between two different incubators. A summary can be found in the experiment plan. […] The analysis on d0 (day 0) was carried out immediately after the seeding under the LAF box, i.e. without any previous effect of the CO2 atmosphere of the incubator.

[3] = tested on: CHO; test: Fermentation verification buffer system (Example 4); type: cell-based, Chinese Hamster; conditions: CO2-regulated bioreactors, NaHCO3 0-16 mM, FIG. 6
Source text: In six CO2-regulated bioreactors the buffer systems TES and Sod-β are used with different concentrations of NaHCO3, in order to determine the optimum concentration of NaHCO3 in the medium. […] Medium B, NaHCO3-free, MOPS-free+weighed amount/stock solution buffer substance(s) • Feeding: […] NaOH (1.2M) (no CO2) • pCO2: day 0-3 5%, day 3-11 3% The buffer systems used with different concentrations of NaHCO3 are shown in Table 6. [table]

[4] = tested on: CHO; conditions: acid added on day 3, FIG. 9B
Protocol: Different acids are added to three CO2-regulated bioreactors for a pH shift from 6.95 to 6.8 on day 3. The concentrations of the acid solutions are chosen such that the quantities of substance required, which have been determined beforehand in a titration, are present in 50 ml of solution.
The test set-up is described below: • Platform: Bioreactor/Multifermenter • Method: Fed Batch • Cell: CHO • Seeding density: 3×10^5 vc/mL • Start volume: 1.8 L • Run time: 11 days • Medium: Medium B, NaHCO3-free, MOPS-free+Sod-β (25 mM) • Feeding: Feed I continuously from day 2 • Temperature: 37° C. • pO2: 60% • Speed: 160 rpm • pH: day 0-3 7.00±0.05, day 3-11 6.80±0.05 • pH regulation: NaOH (1.2M) (no CO2)

[5] = tested on: CHO; conditions: Na salt added on day 3, FIG. 8
Protocol: In 10 250 ml shake flasks, cells are tested for their acid tolerance with the addition of sodium salts. The salt solutions are selected such that the quantities of acids determined by titration beforehand are present in 1.5 ml of solution for a pH shift from 7.1 to 6.7. On day 3 these 1.5 ml of the different salt solutions are added to the shake flasks to simulate a pH shift.

| Compound | cell growth / buffer performance [2] | standardised product concentration [4] | other results |
| --- | --- | --- | --- |
| [Na+].[OH-] [NaOH, sodium hydroxide solution] |  |  | product formation rate by pH regulation agent ([1]; NaOH versus Na2CO3, FIG. 4): better product formation rate |
| O.O.O.O.O.O=P([O-])([O-])OC(CO)CO.[Na+].[Na+] [Sod-β, sodium-β-glycerophosphate-pentahydrate] | best buffer substances |  | standardised product concentration with different NaHCO3 concentrations [3]: not dependent on the amount of NaHCO3 in the medium; also recorded: productivity of the cells is independent of the concentration of NaHCO3 |
| O=S(=O)(O)CCNC(CO)(CO)CO [TES, N-tris(hydroxymethyl)methyl-2-aminoethanesulphonic acid] | best buffer substances |  | standardised product concentration with different NaHCO3 concentrations [3]: same product concentrations both with and without the use of NaHCO3; also recorded: identical product concentrations; titre concentration compared with the control ([1]; FIG. 5C, control NaHCO3 36 mmol/L): at the same level as those of the control |
| NC(CO)(CO)CO [Trizma base] | runs poorly |  | toxicity ([2]; any concentration, pH stable): may be some toxicity |
| Cl [hydrochloric acid] |  | same product concentrations |  |
| O=P(O)(O)O [phosphoric acid] |  | same product concentrations |  |
| CC(=O)[O-].[Na+] [sodium acetate] |  |  | toxic effect on cell growth [5]: toxic effect |
| O=S(=O)(O)O [sulphuric acid] |  | same product concentrations |  |
